In ChEMBL document CHEMBL1909046, “DrugMatrix in vitro pharmacology data”:

How the values were obtained:
[1] = DRUGMATRIX: Potassium Channel [KATP] radioligand binding (ligand: [3H] Glyburide); type: cell membranes, Membrane; conditions: hit-t15; Not Active = under 50% inhibition at 10 µM
[2] = target: T1, Angiotensin-converting enzyme (Oryctolagus cuniculus, UniProt P12822); type: tissue-based, Lung;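 note: enzymatic inhibition of angiotensin-converting enzyme measured with FAPGG as the substrate; in other assays of this panel Not Active means under 50% inhibition at 10 µM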
T1 sequence (P12822 whole entry): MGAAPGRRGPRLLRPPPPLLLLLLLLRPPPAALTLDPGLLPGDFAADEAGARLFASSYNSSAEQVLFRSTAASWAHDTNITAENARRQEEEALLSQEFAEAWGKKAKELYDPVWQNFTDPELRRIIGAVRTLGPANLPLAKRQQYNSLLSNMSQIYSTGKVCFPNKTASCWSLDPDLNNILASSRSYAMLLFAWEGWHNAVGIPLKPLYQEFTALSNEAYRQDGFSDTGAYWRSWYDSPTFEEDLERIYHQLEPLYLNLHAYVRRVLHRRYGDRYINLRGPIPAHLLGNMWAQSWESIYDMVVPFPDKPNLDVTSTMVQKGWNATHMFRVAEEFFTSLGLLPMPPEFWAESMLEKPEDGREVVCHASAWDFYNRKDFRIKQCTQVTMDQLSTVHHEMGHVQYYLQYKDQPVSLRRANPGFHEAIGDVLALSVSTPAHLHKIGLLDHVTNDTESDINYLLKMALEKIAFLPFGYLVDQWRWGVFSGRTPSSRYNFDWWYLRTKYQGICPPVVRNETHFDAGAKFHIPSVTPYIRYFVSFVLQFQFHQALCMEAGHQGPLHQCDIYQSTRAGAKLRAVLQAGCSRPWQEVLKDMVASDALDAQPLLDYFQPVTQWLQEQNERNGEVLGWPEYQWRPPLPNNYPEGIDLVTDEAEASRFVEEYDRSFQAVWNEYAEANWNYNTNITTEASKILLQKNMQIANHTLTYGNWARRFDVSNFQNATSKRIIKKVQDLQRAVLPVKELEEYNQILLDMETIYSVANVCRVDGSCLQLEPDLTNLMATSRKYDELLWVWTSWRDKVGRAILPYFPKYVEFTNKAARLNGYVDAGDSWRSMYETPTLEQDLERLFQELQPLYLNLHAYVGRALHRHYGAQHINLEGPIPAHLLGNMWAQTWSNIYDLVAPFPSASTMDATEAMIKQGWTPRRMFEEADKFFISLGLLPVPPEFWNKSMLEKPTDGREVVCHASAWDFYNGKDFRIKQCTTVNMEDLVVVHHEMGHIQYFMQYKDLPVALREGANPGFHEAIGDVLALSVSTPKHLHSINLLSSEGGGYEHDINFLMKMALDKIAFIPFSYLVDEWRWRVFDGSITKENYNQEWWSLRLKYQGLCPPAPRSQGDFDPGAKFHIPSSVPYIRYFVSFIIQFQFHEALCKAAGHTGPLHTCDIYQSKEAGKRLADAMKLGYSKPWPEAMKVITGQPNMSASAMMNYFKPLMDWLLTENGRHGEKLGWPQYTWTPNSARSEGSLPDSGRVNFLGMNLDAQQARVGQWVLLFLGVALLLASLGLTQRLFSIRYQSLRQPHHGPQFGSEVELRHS

[3] = DRUGMATRIX: Calcium Channel Type L, Benzothiazepine radioligand binding (ligand: [3H] Diltiazem); type: cell membranes, Rattus norvegicus, Wistar, Brain, Membrane; conditions: Not Active = under 50% inhibition at 10 µM
Vasopressin V1a receptor = Vasopressin V1a receptor (Homo sapiens, UniProt P37288); type: cell membranes, Membrane; conditions: hek293; note: in other assays of this panel Not Active means under 50% inhibition at 10 µM
[4] = target: T2, Muscarinic acetylcholine receptor M5 (Homo sapiens, UniProt P08912); type: cell membranes, CHO-K1, Membrane; conditions: cho-k1; note: in other assays of this panel Not Active means under 50% inhibition at 10 µM
T2 sequence (P08912 whole entry): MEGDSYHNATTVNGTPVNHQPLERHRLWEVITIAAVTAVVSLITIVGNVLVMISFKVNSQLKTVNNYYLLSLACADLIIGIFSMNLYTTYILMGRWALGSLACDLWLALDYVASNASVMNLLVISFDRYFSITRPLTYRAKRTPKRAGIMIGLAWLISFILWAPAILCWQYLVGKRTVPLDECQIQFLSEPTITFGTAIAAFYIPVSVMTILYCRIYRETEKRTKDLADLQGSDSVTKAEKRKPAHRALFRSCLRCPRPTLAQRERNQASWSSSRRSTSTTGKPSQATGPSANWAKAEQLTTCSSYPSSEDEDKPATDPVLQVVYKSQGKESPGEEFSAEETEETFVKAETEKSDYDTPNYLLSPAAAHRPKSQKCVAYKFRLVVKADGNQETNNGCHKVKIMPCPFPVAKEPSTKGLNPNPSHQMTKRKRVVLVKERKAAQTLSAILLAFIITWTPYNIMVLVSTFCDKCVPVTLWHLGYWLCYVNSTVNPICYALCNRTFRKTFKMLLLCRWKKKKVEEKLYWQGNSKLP

[5] = target: T3, Type-2 angiotensin II receptor (Homo sapiens, UniProt P50052); type: cell-based; conditions: cho-k1; note: in other assays of this panel Not Active means under 50% inhibition at 10 µM
T3 sequence (P50052 whole entry): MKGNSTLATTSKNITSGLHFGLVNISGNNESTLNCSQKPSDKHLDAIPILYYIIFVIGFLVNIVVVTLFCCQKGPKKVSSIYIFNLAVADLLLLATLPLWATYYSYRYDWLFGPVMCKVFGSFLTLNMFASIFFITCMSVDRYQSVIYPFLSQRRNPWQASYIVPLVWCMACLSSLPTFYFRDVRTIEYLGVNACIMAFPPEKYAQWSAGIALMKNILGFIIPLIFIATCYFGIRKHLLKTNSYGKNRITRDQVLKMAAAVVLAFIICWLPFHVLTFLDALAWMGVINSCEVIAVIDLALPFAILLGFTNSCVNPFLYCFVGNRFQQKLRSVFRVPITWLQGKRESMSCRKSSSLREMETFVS

Cannabinoid receptor 1 = Cannabinoid receptor 1 (Homo sapiens, UniProt P21554); type: cell membranes, Chem-1, Membrane; conditions: chem-1; note: in other assays of this panel Not Active means under 50% inhibition at 10 µM
Sequence of Cannabinoid receptor 1 (P21554 whole entry): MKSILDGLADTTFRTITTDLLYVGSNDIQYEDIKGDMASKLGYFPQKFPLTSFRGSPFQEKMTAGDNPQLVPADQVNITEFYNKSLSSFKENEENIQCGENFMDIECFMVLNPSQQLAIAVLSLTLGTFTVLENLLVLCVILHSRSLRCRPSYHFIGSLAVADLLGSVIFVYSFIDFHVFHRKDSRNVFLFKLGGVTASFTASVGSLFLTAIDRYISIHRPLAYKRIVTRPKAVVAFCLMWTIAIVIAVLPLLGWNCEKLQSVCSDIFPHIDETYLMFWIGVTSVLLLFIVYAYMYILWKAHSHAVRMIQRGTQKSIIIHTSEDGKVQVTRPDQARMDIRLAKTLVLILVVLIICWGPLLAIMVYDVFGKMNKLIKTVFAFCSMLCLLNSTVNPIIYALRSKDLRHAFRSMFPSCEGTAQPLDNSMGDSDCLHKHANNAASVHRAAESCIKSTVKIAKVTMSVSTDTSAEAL

Sequence of Vasopressin V1a receptor (P37288 whole entry): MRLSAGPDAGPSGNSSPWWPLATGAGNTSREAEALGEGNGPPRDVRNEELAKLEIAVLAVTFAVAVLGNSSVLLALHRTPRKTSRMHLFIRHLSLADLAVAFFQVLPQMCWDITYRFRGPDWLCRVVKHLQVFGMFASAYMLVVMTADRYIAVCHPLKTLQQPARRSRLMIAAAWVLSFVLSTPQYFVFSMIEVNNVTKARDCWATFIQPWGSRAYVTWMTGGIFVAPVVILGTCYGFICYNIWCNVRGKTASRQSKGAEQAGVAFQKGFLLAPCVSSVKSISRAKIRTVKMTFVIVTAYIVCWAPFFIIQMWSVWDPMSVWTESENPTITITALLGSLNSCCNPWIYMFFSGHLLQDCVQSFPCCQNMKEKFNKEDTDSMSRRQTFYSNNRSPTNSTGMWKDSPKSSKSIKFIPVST

C#C[C@]1(OC(C)=O)CC[C@H]2[C@@H]3CCC4=C[C@@H](OC(C)=O)CC[C@@H]4[C@H]3CC[C@@]21C [ETHYNODIOL DIACETATE]
Not Active: IC50 [1] | Ki [1] | IC50 [2] | IC50 [3] | Ki [3] | IC50 (Vasopressin V1a receptor) | IC50 [4] | IC50 [5] | IC50 (Cannabinoid receptor 1)

COc1cc([C@@H]2c3cc4c(cc3[C@@H](O[C@@H]3O[C@@H]5CO[C@@H](C)O[C@H]5[C@H](O)[C@H]3O)[C@H]3COC(=O)[C@H]23)OCO4)cc(OC)c1O [ETOPOSIDE]
Not Active: IC50 [1] | Ki [1] | IC50 [2] | IC50 [3] | Ki [3] | IC50 (Vasopressin V1a receptor) | IC50 [4] | IC50 [5] | IC50 (Cannabinoid receptor 1)

C=CCc1ccc(O)c(OC)c1 [EUGENOL]
Not Active: IC50 [1] | Ki [1] | IC50 [2] | IC50 [3] | Ki [3] | IC50 (Vasopressin V1a receptor) | IC50 [4] | IC50 [5] | IC50 (Cannabinoid receptor 1)

CC(C(=O)O)c1cccc(Oc2ccccc2)c1 (stereo not given) [FENOPROFEN]
Not Active: IC50 [1] | Ki [1] | IC50 [2] | IC50 [3] | Ki [3] | IC50 (Vasopressin V1a receptor) | IC50 [4] | IC50 [5] | IC50 (Cannabinoid receptor 1)

CC(C)(C)NC(=O)[C@H]1CC[C@H]2[C@@H]3CC[C@H]4NC(=O)C=C[C@]4(C)[C@H]3CC[C@]12C [FINASTERIDE]
Not Active: IC50 [1] | Ki [1] | IC50 [2] | IC50 [3] | Ki [3] | IC50 (Vasopressin V1a receptor) | IC50 [4] | IC50 [5] | IC50 (Cannabinoid receptor 1)

COc1ccc2c3c1O[C@H]1C[C@@H](O)C=C[C@@]31CCN(C)C2 [GALANTAMINE]
Not Active: IC50 [1] | Ki [1] | IC50 [2] | IC50 [3] | Ki [3] | IC50 (Vasopressin V1a receptor) | IC50 [4] | IC50 [5] | IC50 (Cannabinoid receptor 1)

Nc1ccn([C@@H]2O[C@H](CO)[C@@H](O)C2(F)F)c(=O)n1 [GEMCITABINE]
Not Active: IC50 [1] | Ki [1] | IC50 [2] | IC50 [3] | Ki [3] | IC50 (Vasopressin V1a receptor) | IC50 [4] | IC50 [5] | IC50 (Cannabinoid receptor 1)

CC(C)=CCC/C(C)=C/CO [GERANIOL]
Not Active: IC50 [1] | Ki [1] | IC50 [2] | IC50 [3] | Ki [3] | IC50 (Vasopressin V1a receptor) | IC50 [4] | IC50 [5] | IC50 (Cannabinoid receptor 1)

N=C(N)NC(=O)Cc1c(Cl)cccc1Cl [GUANFACINE]
Not Active: IC50 [1] | Ki [1] | IC50 [2] | IC50 [3] | Ki [3] | IC50 (Vasopressin V1a receptor) | IC50 [4] | IC50 [5] | IC50 (Cannabinoid receptor 1)

Oc1c(Cl)cc(Cl)c(Cl)c1Cc1c(O)c(Cl)cc(Cl)c1Cl [HEXACHLOROPHENE]
Not Active: IC50 [1] | Ki [1] | IC50 [2] | IC50 [3] | Ki [3] | IC50 (Vasopressin V1a receptor) | IC50 [4] | IC50 [5] | IC50 (Cannabinoid receptor 1)

NNc1nncc2ccccc12 [HYDRALAZINE]
Not Active: IC50 [1] | Ki [1] | IC50 [2] | IC50 [3] | Ki [3] | IC50 (Vasopressin V1a receptor) | IC50 [4] | IC50 [5] | IC50 (Cannabinoid receptor 1)

CC(=O)[C@@]1(O)CC[C@H]2[C@@H]3CCC4=CC(=O)CC[C@]4(C)[C@H]3CC[C@@]21C [HYDROXYPROGESTERONE]
Not Active: IC50 [1] | Ki [1] | IC50 [2] | IC50 [3] | Ki [3] | IC50 (Vasopressin V1a receptor) | IC50 [4] | IC50 [5] | IC50 (Cannabinoid receptor 1)

COC1=C(OC)C(=O)C(CCCCCCCCCCO)=C(C)C1=O [IDEBENONE]
Not Active: IC50 [1] | Ki [1] | IC50 [2] | IC50 [3] | Ki [3] | IC50 (Vasopressin V1a receptor) | IC50 [4] | IC50 [5] | IC50 (Cannabinoid receptor 1)

CC(C)NNC(=O)c1ccncc1 [IPRONIAZID]
Not Active: IC50 [1] | Ki [1] | IC50 [2] | IC50 [3] | Ki [3] | IC50 (Vasopressin V1a receptor) | IC50 [4] | IC50 [5] | IC50 (Cannabinoid receptor 1)

Cc1c(OCC(F)(F)F)ccnc1C[S+]([O-])c1nc2ccccc2[nH]1 (stereo not given) [LANSOPRAZOLE]
Not Active: IC50 [1] | Ki [1] | IC50 [2] | IC50 [3] | Ki [3] | IC50 (Vasopressin V1a receptor) | IC50 [4] | IC50 [5] | IC50 (Cannabinoid receptor 1)

O=c1cc(N2CCOCC2)oc2c(-c3ccccc3)cccc12 [LY-294002]
Not Active: IC50 [1] | Ki [1] | IC50 [2] | IC50 [3] | Ki [3] | IC50 (Vasopressin V1a receptor) | IC50 [4] | IC50 [5] | IC50 (Cannabinoid receptor 1)

COc1ccc2[nH]cc(CCNC(C)=O)c2c1 [MELATONIN]
Not Active: IC50 [1] | Ki [1] | IC50 [2] | IC50 [3] | Ki [3] | IC50 (Vasopressin V1a receptor) | IC50 [4] | IC50 [5] | IC50 (Cannabinoid receptor 1)

NC(=O)C[S+]([O-])C(c1ccccc1)c1ccccc1 (stereo not given) [MODAFINIL]
Not Active: IC50 [1] | Ki [1] | IC50 [2] | IC50 [3] | Ki [3] | IC50 (Vasopressin V1a receptor) | IC50 [4] | IC50 [5] | IC50 (Cannabinoid receptor 1)

CCN(CC)CCOCCC1=CCC2CC1C2(C)C (stereo not given) [MYRTECAINE]
Not Active: IC50 [1] | Ki [1] | IC50 [2] | IC50 [3] | Ki [3] | IC50 (Vasopressin V1a receptor) | IC50 [4] | IC50 [5] | IC50 (Cannabinoid receptor 1)

O=C(O)c1cccnc1Nc1cccc(C(F)(F)F)c1 [NIFLUMIC ACID]
Not Active: IC50 [1] | Ki [1] | IC50 [2] | IC50 [3] | Ki [3] | IC50 (Vasopressin V1a receptor) | IC50 [4] | IC50 [5] | IC50 (Cannabinoid receptor 1)
